Laboratory results: patent US10047105B2, “Gyrase inhibitors” (Merck Sharp & Dohme Corp., priority 2009, dated 2018)
In brackets after ≈: the same amount, converted by molar mass.

Columns and labels:
Type in all cases: cell-based
[1] = system: E. coli imp Benson BAS849; experiment: microbe, parasite or virus in culture; conditions: Escherichia coli, read-out: Antibacterial Potency MIC
[2] = system: S. aureus ATCC 13709 (SA + serum); experiment: MIC, S. aureus + 20% mouse serum; conditions: Staphylococcus aureus, ATCC13709; S. aureus + serum (20% mouse serum); read-out: Antibacterial Potency MIC
[3] = system: K. pneumoniae 11; experiment: MIC, K. pneumoniae 11; conditions: Klebsiella pneumoniae, read-out: Antibacterial Potency MIC
[4] = system: S. aureus ATCC 13709; experiment: MIC, antibacterial potency, S. aureus; conditions: for MIC: Staphylococcus aureus, ATCC13709, S. aureus; for MIC, SA: S. aureus (SA), in µg/mL
[5] = system: E. coli ATCC 25922 (EC8 + serum); experiment: MIC, E. coli + 20% mouse serum; conditions: Escherichia coli, ATCC25922; E. coli + serum (20% mouse serum); read-out: Antibacterial Potency MIC
[6] = system: E. coli 8 ATCC 25922; experiment: MIC, E. coli 8 (wt); conditions: for MIC: Escherichia coli, ATCC25922, E. coli (wt), read-out: Antibacterial Potency MIC; for MIC EC8: E. coli 8 (EC8)
[7] = system: H. influenzae ATCC 49247; experiment: MIC, H. influenzae; conditions: Haemophilus influenzae, ATCC49247, read-out: Antibacterial Potency MIC
[8] = system: A. baumannii ATCC 19606; experiment: MIC, A. baumannii; conditions: Acinetobacter baumannii, ATCC19606, read-out: Antibacterial Potency MIC
[9] = system: P. aeruginosa ATCC 15692; experiment: MIC, P. aeruginosa (wt); conditions: Pseudomonas aeruginosa, ATCC15692, read-out: Antibacterial Potency MIC
[10] = system: K. pneumoniae 101; experiment: MIC, K. pneumoniae 101; conditions: Klebsiella pneumoniae, read-out: Antibacterial Potency MIC
[11] = system: S. pneumoniae ATCC 51916; experiment: MIC, S. pneumoniae; conditions: for MIC: Streptococcus pneumoniae, ATCC51916, S. pneumoniae, read-out: Antibacterial Potency MIC; for MIC Spn52: S. pneumoniae (Spn52), in µg/mL
[12] = system: E. coli Δtolc BW25113 Δtolc; experiment: microbe, parasite or virus in culture; conditions: Escherichia coli, BW25113, read-out: Antibacterial Potency MIC

MIC, SA [4] | MIC EC8 [6] [µg/mL] | MIC Spn52 [11] | Compound | MIC [1] [µg/mL] | MIC [2] [µg/mL] | MIC [3] [µg/mL] | MIC [4] [µg/mL] | MIC [5] [µg/mL] | MIC [6] [µg/mL] | MIC [7] [µg/mL] | MIC [8] [µg/mL] | MIC [9] [µg/mL] | MIC [10] [µg/mL] | MIC [11] [µg/mL] | MIC [12] [µg/mL]
4 | > 64 | 16 | CCc1[nH]c2nc(Oc3cncnc3)nc(Oc3ccc4ncnc(N5CC(N)C5)c4c3)c2c1Br [701,297] |  |  |  |  |  |  |  |  |  |  |  | 
2 | > 64 | 4 | CCc1[nH]c2nc(Oc3cncc(C#N)c3)nc(Oc3ccc4ncnc(N5CC(N)C5)c4c3)c2c1Br [701,298] |  |  |  |  |  |  |  |  |  |  |  | 
2 | > 64 | 4 | CCc1[nH]c2nc(Oc3ccc4ncnc(N5CC(N)C5)c4c3)nc(Oc3cncc(C#N)c3)c2c1Br [701,299] |  |  |  |  |  |  |  |  |  |  |  | 

The next lines start with the compound.

Compound | MIC, SA [4] | MIC EC8 [6] [µg/mL] | MIC Spn52 [11] | MIC [1] [µg/mL] | MIC [2] [µg/mL] | MIC [3] [µg/mL] | MIC [4] [µg/mL] | MIC [5] [µg/mL] | MIC [6] [µg/mL] | MIC [7] [µg/mL] | MIC [8] [µg/mL] | MIC [9] [µg/mL] | MIC [10] [µg/mL] | MIC [11] [µg/mL] | MIC [12] [µg/mL]
CCc1[nH]c2nc(Sc3cnc4ccc[n+]([O-])c4c3)nc(N3CC[C@@H](N)C3)c2c1Cl [701,008] |  |  |  | 1 (≈ 2.26 µM) | ≤ 0.5 | 32 (≈ 72.4 µM) | ≤ 0.5 | 2 | 4 (≈ 9.05 µM) | 2 (≈ 4.53 µM) | 8 (≈ 18.1 µM) | 16 (≈ 36.2 µM) | ≤ 0.5 | 1 (≈ 2.26 µM) | ≤ 0.5
CCc1[nH]c2nc(Sc3cnc4ccc[n+]([O-])c4c3)nc(N3CC[C@@H](N)C3)c2c1Cl [701008-2] | <=0.5 | 4 (≈ 9.05 µM) | 1 |  |  |  |  |  |  |  |  |  |  |  | 
CCc1[nH]c2nc(Sc3cnc4ccc[n+]([O-])c4c3)nc(N3CC4C(N)C4C3)c2c1Cl (stereo not drawn) [701009-2] | <=0.5 | 2 (≈ 4.41 µM) | <=0.5 |  |  |  |  |  |  |  |  |  |  |  | 
CCc1[nH]c2nc(Oc3cncnc3)nc(Oc3cc(O)cc(C#N)c3)c2c1Br [701249-2] | <=0.5 | 4 (≈ 8.83 µM) | <=0.5 |  |  |  |  |  |  |  |  |  |  |  | 
CCc1[nH]c2nc(Sc3cnc4ccc[n+]([O-])c4c3)nc(N3CC4C(N)C4C3)c2c1Cl (stereo not drawn) [compound 701009] |  |  |  | ≤ 0.5 | ≤ 0.5 | 32 (≈ 70.5 µM) | ≤ 0.5 | 4 | 2 (≈ 4.41 µM) | 2 (≈ 4.41 µM) | 4 (≈ 8.81 µM) | 4 (≈ 8.81 µM) | ≤ 0.5 | ≤ 0.5 | ≤ 0.5
